system: FLK-1 receptor; experiment: FLK-1 Assay (cellular/catalytic ELISA, VEGF-stimulated phosphotyrosine); assay type: cell-based; set-up: concentration or dose not given beside the values
Procedure, shortened: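 Receptor phosphotyrosine ELISA: Flk-1-expressing NIH3T3 C7#3 cells, starved overnight in 0.1% FBS medium, received compound (1:200 final dilution, 0.5% DMSO) for 2 h at 37 °C, then VEGF. Anti-FLK-1-captured receptor was probed with anti-phosphotyrosine UB40 and peroxidase/ABTS read-out, relative to cells without compound.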

SMILES | Flk Kinase % Inhibition (P.110) [%]
Cc1c(Br)cc(Br)c2c1C(=Cc1ccc(O)cc1)C(=O)N2 [10719/H07] | 2.4
Cc1c(Br)cc(Br)c2c1C(=Cc1ccc(N(C)C)cc1)C(=O)N2 [10719/H08] | 11.6
Cc1c(Br)cc(Br)c2c1C(=Cc1ccc(F)cc1Cl)C(=O)N2 [10719/H09] | 2.5
Cc1c(Br)cc(Br)c2c1C(=Cc1cccc([N+](=O)[O-])c1)C(=O)N2 [10719/H10] | −0.7
Cc1c(Br)cc(Br)c2c1C(=Cc1ccc(F)cc1C(F)(F)F)C(=O)N2 [10719/H11] | 12.3
Cc1c(Br)cc(Br)c2c1C(=Cc1c(F)cc(F)cc1F)C(=O)N2 [10720/H02] | 9.7
COc1cc(O)ccc1C=C1C(=O)Nc2c(Br)cc(Br)c(C)c21 [10720/H03] | 1.8
N#Cc1ccccc1C=C1C(=O)Nc2ccc(CCCl)cc21 [10735/G07] | 17.6
O=C1Nc2ccc(CCCl)cc2C1=Cc1c(F)cccc1F [10735/G08] | 10.9
O=C1Nc2ccc(CCCl)cc2C1=Cc1cccc2ccccc12 [10735/G09] | 15.9
O=C1Nc2ccc(CCCl)cc2C1=Cc1ccc(Cl)cc1Cl [10735/G10] | 6.8
O=C1Nc2ccc(CCCl)cc2C1=Cc1ccc(-c2ccccc2)cc1 [10735/G11] | 10.1
Cc1ccccc1C=C1C(=O)Nc2c(Br)cc(Br)c(C)c21 [10735/H02] | 14.5
Cc1c(Br)cc(Br)c2c1C(=Cc1ccc(F)c(F)c1)C(=O)N2 [10735/H03] | 7.4
Cc1c(Br)cc(Br)c2c1C(=Cc1cc(F)cc(F)c1)C(=O)N2 [10735/H04] | 12.8
Cc1c(Br)cc(Br)c2c1C(=Cc1cccc(C(F)(F)F)c1)C(=O)N2 [10735/H05] | 29.5
Cc1c(Br)cc(Br)c2c1C(=Cc1cc(C(F)(F)F)cc(C(F)(F)F)c1)C(=O)N2 [10735/H06] | 25.9
Cc1c(Br)cc(Br)c2c1C(=Cc1ccccc1C#N)C(=O)N2 [10735/H07] | 21.4
Cc1c(Br)cc(Br)c2c1C(=Cc1c(F)cccc1F)C(=O)N2 [10735/H08] | 29.1
Cc1c(Br)cc(Br)c2c1C(=Cc1cccc3ccccc13)C(=O)N2 [10735/H09] | 20.6
Cc1c(Br)cc(Br)c2c1C(=Cc1ccc(Cl)cc1Cl)C(=O)N2 [10735/H10] | 24.0
Cc1c(Br)cc(Br)c2c1C(=Cc1ccc(-c3ccccc3)cc1)C(=O)N2 [10735/H11] | 28.3
O=C1Nc2c(Br)cc(Br)cc2C1=Cc1ccc(Cl)cc1 [10736/A02] | −6.0
O=C1Nc2c(Br)cc(Br)cc2C1=Cc1ccccc1C(F)(F)F [10736/A03] | 5.7
Cc1cccc(C=C2C(=O)Nc3c(Br)cc(Br)cc32)c1 [10736/A04] | −13.0
Cc1ccc(C=C2C(=O)Nc3c(Br)cc(Br)cc32)cc1 [10736/A05] | −19.4
O=C1Nc2c(Br)cc(Br)cc2C1=Cc1cccc(Cl)c1 [10736/A06] | −18.2

SMILES | Flk Kinase % Inhibition (P.110) [%]
O=C1Nc2c(Br)cc(Br)cc2C1=Cc1cccc(F)c1 [10736/A07] | −12.6
O=C1Nc2c(Br)cc(Br)cc2C1=Cc1ccccc1F [10736/A08] | −13.4
CCc1ccc(C=C2C(=O)Nc3c(Br)cc(Br)cc32)cc1 [10736/A09] | −8.7
COc1cccc(C=C2C(=O)Nc3c(Br)cc(Br)cc32)c1 [10736/A10] | −11.0
O=C1Nc2c(Br)cc(Br)cc2C1=Cc1ccccc1Cl [10736/A11] | −12.4
O=C1Nc2ccc(I)cc2C1=Cc1ccc(Cl)cc1 [10736/B02] | 1.0
O=C1Nc2ccc(I)cc2C1=Cc1ccccc1C(F)(F)F [10736/B03] | 11.3
Cc1cccc(C=C2C(=O)Nc3ccc(I)cc32)c1 [10736/B04] | 3.0
Cc1ccc(C=C2C(=O)Nc3ccc(I)cc32)cc1 [10736/B05] | −0.5
O=C1Nc2ccc(I)cc2C1=Cc1cccc(Cl)c1 [10736/B06] | 3.8
O=C1Nc2ccc(I)cc2C1=Cc1cccc(F)c1 [10736/B07] | 4.0
O=C1Nc2ccc(I)cc2C1=Cc1ccccc1F [10736/B08] | 5.0
CCc1ccc(C=C2C(=O)Nc3ccc(I)cc32)cc1 [10736/B09] | 8.0
COc1cccc(C=C2C(=O)Nc3ccc(I)cc32)c1 [10736/B10] | 2.5
O=C1Nc2ccc(I)cc2C1=Cc1ccccc1Cl [10736/B11] | 7.3
Cc1c(Br)ccc2c1C(=Cc1ccc(Cl)cc1)C(=O)N2 [10736/C02] | −0.9
Cc1c(Br)ccc2c1C(=Cc1ccccc1C(F)(F)F)C(=O)N2 [10736/C03] | 6.5
Cc1cccc(C=C2C(=O)Nc3ccc(Br)c(C)c32)c1 [10736/C04] | 2.8
Cc1ccc(C=C2C(=O)Nc3ccc(Br)c(C)c32)cc1 [10736/C05] | 4.6
Cc1c(Br)ccc2c1C(=Cc1cccc(Cl)c1)C(=O)N2 [10736/C06] | 6.2
Cc1c(Br)ccc2c1C(=Cc1cccc(F)c1)C(=O)N2 [10736/C07] | 4.4
Cc1c(Br)ccc2c1C(=Cc1ccccc1F)C(=O)N2 [10736/C08] | 3.1
CCc1ccc(C=C2C(=O)Nc3ccc(Br)c(C)c32)cc1 [10736/C09] | 11.2
COc1cccc(C=C2C(=O)Nc3ccc(Br)c(C)c32)c1 [10736/C10] | 1.1
Cc1c(Br)ccc2c1C(=Cc1ccccc1Cl)C(=O)N2 [10736/C11] | 7.2
CNS(=O)(=O)c1ccc2c(c1)C(=Cc1ccc(Cl)cc1)C(=O)N2 [10736/D02] | 5.8
CNS(=O)(=O)c1ccc2c(c1)C(=Cc1ccccc1C(F)(F)F)C(=O)N2 [10736/D03] | 5.4

SMILES | Flk Kinase % Inhibition (P.110) [%]
CNS(=O)(=O)c1ccc2c(c1)C(=Cc1cccc(C)c1)C(=O)N2 [10736/D04] | 4.3
CNS(=O)(=O)c1ccc2c(c1)C(=Cc1ccc(C)cc1)C(=O)N2 [10736/D05] | 15.2
CNS(=O)(=O)c1ccc2c(c1)C(=Cc1cccc(Cl)c1)C(=O)N2 [10736/D06] | 12.2
CNS(=O)(=O)c1ccc2c(c1)C(=Cc1cccc(F)c1)C(=O)N2 [10736/D07] | 7.0
CNS(=O)(=O)c1ccc2c(c1)C(=Cc1ccccc1F)C(=O)N2 [10736/D08] | 11.0
CCc1ccc(C=C2C(=O)Nc3ccc(S(=O)(=O)NC)cc32)cc1 [10736/D09] | 8.5
CNS(=O)(=O)c1ccc2c(c1)C(=Cc1cccc(OC)c1)C(=O)N2 [10736/D10] | −11.6
CNS(=O)(=O)c1ccc2c(c1)C(=Cc1ccccc1Cl)C(=O)N2 [10736/D11] | 12.5
O=C1Nc2ccc(S(=O)(=O)Nc3ccc(C(F)(F)F)cc3)cc2C1=Cc1ccc(Cl)cc1 [10736/E02] | 8.2
O=C1Nc2ccc(S(=O)(=O)Nc3ccc(C(F)(F)F)cc3)cc2C1=Cc1ccccc1C(F)(F)F [10736/E03] | 17.7
Cc1cccc(C=C2C(=O)Nc3ccc(S(=O)(=O)Nc4ccc(C(F)(F)F)cc4)cc32)c1 [10736/E04] | 22.6
Cc1ccc(C=C2C(=O)Nc3ccc(S(=O)(=O)Nc4ccc(C(F)(F)F)cc4)cc32)cc1 [10736/E05] | 30.2
O=C1Nc2ccc(S(=O)(=O)Nc3ccc(C(F)(F)F)cc3)cc2C1=Cc1cccc(Cl)c1 [10736/E06] | 20.1
O=C1Nc2ccc(S(=O)(=O)Nc3ccc(C(F)(F)F)cc3)cc2C1=Cc1cccc(F)c1 [10736/E07] | 15.3
O=C1Nc2ccc(S(=O)(=O)Nc3ccc(C(F)(F)F)cc3)cc2C1=Cc1ccccc1F [10736/E08] | 19.3
CCc1ccc(C=C2C(=O)Nc3ccc(S(=O)(=O)Nc4ccc(C(F)(F)F)cc4)cc32)cc1 [10736/E09] | 14.1
COc1cccc(C=C2C(=O)Nc3ccc(S(=O)(=O)Nc4ccc(C(F)(F)F)cc4)cc32)c1 [10736/E10] | 27.2
O=C1Nc2ccc(S(=O)(=O)Nc3ccc(C(F)(F)F)cc3)cc2C1=Cc1ccccc1Cl [10736/E11] | 20.5
O=C1Nc2ccc(S(=O)(=O)N3CCOCC3)cc2C1=Cc1ccc(Cl)cc1 [10736/F02] | 23.9
O=C1Nc2ccc(S(=O)(=O)N3CCOCC3)cc2C1=Cc1ccccc1C(F)(F)F [10736/F03] | 16.6
Cc1cccc(C=C2C(=O)Nc3ccc(S(=O)(=O)N4CCOCC4)cc32)c1 [10736/F04] | 16.5
Cc1ccc(C=C2C(=O)Nc3ccc(S(=O)(=O)N4CCOCC4)cc32)cc1 [10736/F05] | 15.1
O=C1Nc2ccc(S(=O)(=O)N3CCOCC3)cc2C1=Cc1cccc(Cl)c1 [10736/F06] | 14.5
O=C1Nc2ccc(S(=O)(=O)N3CCOCC3)cc2C1=Cc1cccc(F)c1 [10736/F07] | 16.6
O=C1Nc2ccc(S(=O)(=O)N3CCOCC3)cc2C1=Cc1ccccc1F [10736/F08] | 7.4
CCc1ccc(C=C2C(=O)Nc3ccc(S(=O)(=O)N4CCOCC4)cc32)cc1 [10736/F09] | 24.0

Reference: patent US20020026053A1, “Novel 3-(substituted) -2- indolinones compounds and use thereof as inhibitors of protein kinase activity” (priority 1997, published 2002)
